Experimental data published in PubChem BioAssay AID248 (DTP/NCI, 2004).
Where “and” joins values, the source holds several entries; their conditions need not be identical. Equal values may be shown once. Inconclusive results and toxic doses are left out. No stated cut-off is given here; in the data, active means T/C of 150% or more; inactive means T/C below 125%.

Test system: L1210 leukemia ip in BDF1 mice, survival T/C
Test: NCI In Vivo Anticancer Drug Screen. Data for tumor model L1210 Leukemia (intraperitoneal) in B6D2F1 (BDF1) mice
Details: endpoint: mean survival time, higher = longer survival
Summary of the method: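 Tumor cells were implanted, animals were treated, and survival was followed. The result divides the treated measurement by the vehicle-control measurement.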

[1] = dose: 200.0 mg/kg/injection, schedule: Q01DX001 (ip), vehicle: saline
[2] = dose: 400.0 mg/kg/injection, schedule: Q01DX001 (ip), vehicle: saline
[3] = dose: 50.0 mg/kg/injection, schedule: Q04DX002 (ip), vehicle: Klucel (hydroxypropylcellulose) (HPC)
[4] = dose: 100.0 mg/kg/injection, schedule: Q04DX002 (ip), vehicle: Klucel (hydroxypropylcellulose) (HPC)
[5] = dose: 200.0 mg/kg/injection, schedule: Q04DX002 (ip), vehicle: Klucel (hydroxypropylcellulose) (HPC)
[6] = dose: 50.0 mg/kg/injection, schedule: Q01DX009 (ip), vehicle: saline
[7] = dose: 50.0 mg/kg/injection, schedule: Q01DX001 (ip), vehicle: saline
[8] = dose: 100.0 mg/kg/injection, schedule: Q01DX009 (ip), vehicle: saline
[9] = dose: 200.0 mg/kg/injection, schedule: Q01DX009 (ip), vehicle: saline
[10] = dose: 100.0 mg/kg/injection, schedule: Q04DX003 (ip), vehicle: saline with Tween-80
[11] = dose: 200.0 mg/kg/injection, schedule: Q04DX003 (ip), vehicle: saline with Tween-80
[12] = dose: 50.0 mg/kg/injection, schedule: Q01DX001 (ip), vehicle: carboxymethylcellulose (CMC)
[13] = dose: 100.0 mg/kg/injection, schedule: Q01DX001 (ip), vehicle: carboxymethylcellulose (CMC)
[14] = dose: 200.0 mg/kg/injection, schedule: Q01DX001 (ip), vehicle: carboxymethylcellulose (CMC)
[15] = dose: 100.0 mg/kg/injection, schedule: Q01DX009 (ip), vehicle: saline with Tween-80
[16] = dose: 100.0 mg/kg/injection, schedule: Q01DX001 (ip), vehicle: other
[17] = dose: 200.0 mg/kg/injection, schedule: Q01DX001 (ip), vehicle: other
[18] = dose: 400.0 mg/kg/injection, schedule: Q01DX001 (ip), vehicle: other
[19] = dose: 200.0 mg/kg/injection, schedule: Q04DX003 (ip), vehicle: saline
[20] = dose: 100.0 mg/kg/injection, schedule: Q01DX001 (ip), vehicle: saline

Measured: T/C

O=C(c1ccccc1)C1NC1c1ccccc1 (configuration not stated)
inactive: dose: 100.0 mg/kg/injection, schedule: Q01DX001 (ip), vehicle: Klucel (hydroxypropylcellulose) (HPC) 97 % of control | dose: 200.0 mg/kg/injection, schedule: Q01DX001 (ip), vehicle: Klucel (hydroxypropylcellulose) (HPC) 92 % of control | dose: 400.0 mg/kg/injection, schedule: Q01DX001 (ip), vehicle: Klucel (hydroxypropylcellulose) (HPC) 95 % of control

O=C(N/N=C/c1cccc([N+](=O)[O-])c1)c1cccc2ccccc12
inactive: [1] 92 % of control | [2] 95 % of control

O=C(NOCc1cc2c(cc1Cl)OCO2)c1ccc(S(=O)(=O)F)cc1
inactive: dose: 100.0 mg/kg/injection, schedule: Q04DX003 (ip), vehicle: saline sonified 95 % of control

CCCCCCCCCCC(=O)N1CCCCCC1
inactive: [3] 100 % of control | [4] 100 % of control | [5] 95 % of control

O=C(Nc1ccc(-c2nc3ccccc3[nH]2)cc1)c1ccc(C(=O)Nc2ccc(-c3nc4ccccc4[nH]3)cc2)cc1
inactive: dose: 15.0 mg/kg/injection, schedule: Q01DX Z (ip), vehicle: carboxymethylcellulose (CMC) 97 % of control | dose: 30.0 mg/kg/injection, schedule: Q01DX Z (ip), vehicle: carboxymethylcellulose (CMC) 97 % of control | dose: 60.0 mg/kg/injection, schedule: Q01DX Z (ip), vehicle: carboxymethylcellulose (CMC) 94 % of control | dose: 120.0 mg/kg/injection, schedule: Q01DX Z (ip), vehicle: carboxymethylcellulose (CMC) 100 % of control

Cc1ccc2scc3c4ccccc4nc-3c2c1
inactive: dose: 25.0 mg/kg/injection, schedule: Q01DX009 (ip), vehicle: saline 95 % of control | [6] 95 % of control

CC(C)CC1NC(C)(C)N(CC(=O)O)C1=O (configuration not stated)
inactive: [7] 88 % of control | [1] 99 % of control

COC(=N)c1cccc(O)c1
inactive: [8] 99 % of control | [9] 97 % of control | dose: 400.0 mg/kg/injection, schedule: Q01DX009 (ip), vehicle: saline 99 % of control

Cc1ccc(N=C(N)NC#N)cc1C
inactive: [10] 102 % of control | [11] 102 % of control | dose: 400.0 mg/kg/injection, schedule: Q04DX003 (ip), vehicle: saline with Tween-80 102 % of control

CC1CCCCN1Cc1ccccc1CC(=O)c1ccccc1 (configuration not stated)
inactive: [4] 93 % of control | [5] 107 % of control

CCOC(=O)c1cc(-c2ccccc2)c(-c2ccccc2)c(-c2ccccc2)c1-c1ccccc1
inactive: [12] 97 % of control | [13] 100 % of control | [14] 97 % of control

CCCCC(CC)CCC(C)O (configuration not stated)
inactive: dose: 50.0 mg/kg/injection, schedule: Q01DX009 (ip), vehicle: saline with Tween-80 96 % of control | [15] 94 % of control | [10] 108 % of control | [11] 95 % of control

CCOP(=O)(Cc1ccc(N=Cc2cnc3nc(NC(C)=O)[nH]c(=O)c3n2)cc1)OCC
inactive: [16] 98 % of control | [17] 105 % of control | [18] 96 % of control

CN(/N=N/c1nc[nH]c1C(=O)N/N=C/c1ccc(N(CCCl)CCCl)cc1)C1CCCCC1
inactive: [16] 95 % of control | [17] 95 % of control | [18] 90 % of control

SC1(S)CC(c2ccc(Cl)cc2)NC(c2ccc(Cl)cc2)C1 (configuration not stated)
inactive: [6] 100 % of control | [8] 93 % of control and 102 % of control | dose: 100.0 mg/kg/injection, schedule: Q04DX003 (ip), vehicle: saline 98 % of control | [9] 93 % of control and 103 % of control | [19] 89 % of control

[CH3][Sn]([CH3])([CH3])[O]C(=O)CCl
inactive: dose: 0.78 mg/kg/injection, schedule: Q01DX009 (ip), vehicle: Klucel (hydroxypropylcellulose) (HPC) 97 % of control | dose: 0.78 mg/kg/injection, schedule: Q04DX002 (ip), vehicle: Klucel (hydroxypropylcellulose) (HPC) 97 % of control | dose: 1.56 mg/kg/injection, schedule: Q01DX009 (ip), vehicle: Klucel (hydroxypropylcellulose) (HPC) 87 % of control | dose: 1.56 mg/kg/injection, schedule: Q04DX002 (ip), vehicle: Klucel (hydroxypropylcellulose) (HPC) 93 % of control | dose: 3.12 mg/kg/injection, schedule: Q04DX002 (ip), vehicle: Klucel (hydroxypropylcellulose) (HPC) 93 % of control

O=S1(=O)CC(Br)C1
inactive: dose: 12.5 mg/kg/injection, schedule: Q04DX002 (ip), vehicle: Klucel (hydroxypropylcellulose) (HPC) 86 % of control | dose: 25.0 mg/kg/injection, schedule: Q01DX009 (ip), vehicle: Klucel (hydroxypropylcellulose) (HPC) 96 % of control | dose: 25.0 mg/kg/injection, schedule: Q04DX002 (ip), vehicle: Klucel (hydroxypropylcellulose) (HPC) 93 % of control | dose: 50.0 mg/kg/injection, schedule: Q01DX009 (ip), vehicle: Klucel (hydroxypropylcellulose) (HPC) 96 % of control | [3] 109 % of control

O=C(O)c1ccccc1C(=O)Nc1ccc(O)cc1
inactive: dose: 75.0 mg/kg/injection, schedule: Q01DX009 (ip), vehicle: saline 102 % of control | dose: 150.0 mg/kg/injection, schedule: Q01DX009 (ip), vehicle: saline 100 % of control | dose: 300.0 mg/kg/injection, schedule: Q01DX009 (ip), vehicle: saline 117 % of control

Cc1cccc(NC(=O)Oc2ccc(-c3ccccc3)cc2)c1
inactive: dose: 100.0 mg/kg/injection, schedule: Q01DX009 (ip), vehicle: Klucel (hydroxypropylcellulose) (HPC) 98 % of control | [4] 95 % of control | dose: 200.0 mg/kg/injection, schedule: Q01DX009 (ip), vehicle: Klucel (hydroxypropylcellulose) (HPC) 97 % of control | [5] 88 % of control | dose: 400.0 mg/kg/injection, schedule: Q01DX009 (ip), vehicle: Klucel (hydroxypropylcellulose) (HPC) 97 % of control | dose: 400.0 mg/kg/injection, schedule: Q04DX002 (ip), vehicle: Klucel (hydroxypropylcellulose) (HPC) 88 % of control

CC12CC3CC(C)(C1)CC(Br)(C3)C2
inactive: [12] 104 % of control | [13] 101 % of control | [14] 113 % of control | dose: 400.0 mg/kg/injection, schedule: Q01DX001 (ip), vehicle: carboxymethylcellulose (CMC) 107 % of control

O=[N+]([O-])c1ncc[nH]1
inactive: [7] 96 % of control | [20] 98 % of control | [1] 102 % of control

CNC(=O)Oc1cccc(NC(=O)OC(C)C)c1
inactive: [15] 97 % of control | dose: 200.0 mg/kg/injection, schedule: Q01DX009 (ip), vehicle: saline with Tween-80 98 % of control | dose: 400.0 mg/kg/injection, schedule: Q01DX009 (ip), vehicle: saline with Tween-80 92 % of control

CCOc1ccc(-n2c(O)c(N=Nc3ccccc3)c(=O)n(-c3ccccc3)c2=S)cc1
inactive: dose: 50.0 mg/kg/injection, schedule: Q04DX003 (ip), vehicle: acetone 94 % of control | dose: 100.0 mg/kg/injection, schedule: Q04DX003 (ip), vehicle: acetone 89 % of control | dose: 200.0 mg/kg/injection, schedule: Q04DX003 (ip), vehicle: acetone 96 % of control

CC(C)(C)CC(C)(C)N=Cc1ccccc1
inactive: [20] 98 % of control | [1] 105 % of control | [2] 88 % of control

CNCCC(CNC1=NCCN1)(c1cccc2ccccc12)C(C)C (configuration not stated)
inactive: dose: 100.0 mg/kg/injection, schedule: Q04DX003 (ip), vehicle: Klucel (hydroxypropylcellulose) (HPC) 94 % of control

Nc1cccc2c1C(=O)C=CC2=O
inactive: dose: 0.78 mg/kg/injection, schedule: Q01DX009 (ip), vehicle: saline 103 % of control | dose: 1.56 mg/kg/injection, schedule: Q01DX009 (ip), vehicle: saline 101 % of control | dose: 1.56 mg/kg/injection, schedule: Q04DX003 (ip), vehicle: saline 95 % of control | dose: 3.12 mg/kg/injection, schedule: Q01DX009 (ip), vehicle: saline 98 % of control | dose: 3.12 mg/kg/injection, schedule: Q04DX003 (ip), vehicle: saline 103 % of control | dose: 4.6 mg/kg/injection, schedule: Q01DX009 (ip), vehicle: saline 104 % of control

CC(=O)NC(C=O)CC(C=O)CO (configuration not stated)
inactive: [19] 110 % of control | dose: 300.0 mg/kg/injection, schedule: Q04DX003 (ip), vehicle: saline 113 % of control
